In patent publication EP0752872B1, “NADH OXIDASE AS A TARGET IN DIAGNOSIS AND THERAPY” (Morré, D. James, priority 1994, dated 1995):
Blank lines part the entries; values can stand above or below the compound they belong to.

Columns and labels:
[1] = system: plasma membrane NADH oxidase; experiment: Spectrophotometric NADH oxidase assay, rat liver plasma membranes (normal cells); type: biochemical; conditions: for response of the NADH oxidase activity (in words): in the presence of Mg^2+
Description: Purification of plasma membranes from rat liver. A 5000 x g pellet from the preparation of Golgi apparatus (Morré (1971) Meth. Enzymol. 22, 130-148) was the starting material. The fluffy layer which contains the Golgi apparatus fraction was mixed, withdrawn and excluded from the plasma membrane preparations. Cold 1 mM NaHCO3 (5 ml) was added to each tube and the friable yellow-brown upper part of the pellet was resuspended with a pen-brush, leaving the reddish tightly packed bottom part of the pellet undisturbed. The resuspended material was homogenized in aliquots of 5 ml each in a 30 ml stainless steel homogenizer (Duragrind) 20 times by hand. The homogenates were combined, diluted with cold 1 mM NaHCO3 (1:1 dilution), and centrifuged at 6000 x g in a HB rotor for 15 min. The supernatant was discarded and the pellet was used for the two-phase separation (Morré & Morré (1989) BioTechniques 7:946-958).
The two-phase system contained 6.4% (w/w) Dextran T-500 (Pharmacia), 6.4% (w/w) polyethylene glycol) 3350 (Fisher), and 5 mM potassium phosphate buffer (pH 7.2) (Morré & Morré, 1989, supra). The homogenate (1 g) was added to the two-phase system and the weight of the system was brought to 8 g with distilled water. The tubes were inverted vigorously for 40 times in the cold (4°C). The phases were separated by centrifugation at 750 rpm (150 x g) in a Sorvall HB 4 rotor for 5 min. The upper phases were carefully withdrawn with a pasteur pipette, divided in half and transferred into 40 ml plastic centrifuge tubes and diluted with cold 1 mM NaHCO3. The purified plasma membranes were collected by centrifugation at 10,000 x g in a HB rotor for 30 min. Plasma membrane pellets were resuspended in 50 mM Tris-Mes buffer (pH 7.2) and stored at -70°C. Proteins were determined using the bicinchoninic acid (BCA) assay (Smith et al. (1985) Anal. Biochem. […]: 76-85) with bovine serum albumin as standard.
(§1) Spectrophometric assay of NADH oxidase. NADH oxidase activity was determined as the disappearance of NADH measured at 340 nm in a reaction mixture containing 25 mM Tris-MES buffer (pH 7.2), 1 mM KCN to inhibit the low levels of contaminating mitochondrial oxidase activity, and 150 µM NADH at 37°C with constant stirring. Activity was measured using a Hitachi U3210 spectrophotometer with continuous recording over two intervals of 5 min each. A millimolar extinction coefficient of 6.22 was used to determine specific activity.

[2] = system: protein disulfide-thiol interchange of HeLa plasma membranes; experiment: Protein disulfide-thiol interchange (restoration of scrambled RNAse activity, yeast RNA hydrolysis method); type: biochemical, human; conditions: for protein disulfide-thiol interchange, I: column I; for protein disulfide-thiol interchange, II: column II; for protein disulfide-thiol interchange, III: column III
Description: Estimation of protein disulfide isomerase- (PDI) like activity. Two methods were employed to determine PDI or PDI-like activity. […] For the assay, 100 µl was transferred to each of 4 tubes. Yeast RNA (100 µl, 0.33 mg/ml, pH 5.0) was added. After 0 min and 10 min, the reaction was stopped by the addition of 100 µl of 25% percholoric acid containing 0.75% uranyl acetate. The tubes were cooled in an ice bath for 5 min and clarified by centrifugation (2 min, microfuge). The 75 µl of the clear supernatant was diluted to 3.0 ml with water. The absorbance was measured at […] against an unincubated blank. […] To prepare the oxidized, denatured RNAse substrate (scrambled RNAse), native RNAse A (Sigma, Type 1-AS from bovine pancreas) (30 µg/ml) was incubated 1 h at 35°C in 50 mM Tris-acetate, pH 8.6, containing 9 M urea and 130 mM DTT. […] Protein concentration was estimated from spectrophotometric measurement at 280 nm using native RNAse A as standard. For preparation of scrambled RNAse, the reduced RNAse was diluted to 0.5 mg/ml with 0.1 M acetic acid. […] The scrambled product was recovered by acidification to pH 4 with glacial acetic acid and elution from Sephadex G-25 in 0.1 M acetic acid. Fractions containing protein were pooled, adjusted to pH 8 and stored at 4°C.

[3] = system: Protein disulfide-thiol interchange activity of HeLa plasma membrane; experiment: Protein disulfide-thiol interchange (RNAse activity with cCMP as substrate); type: biochemical, human; conditions: None 1.6
Description: Estimation of protein disulfide isomerase- (PDI) like activity. Two methods were employed to determine PDI or PDI-like activity.
(§2) In the first method, ribonuclease A activity was measured using a spectrophotometric assay based on cCMP as RNAse substrate. Scrambled RNAse (90.363 mg) was incubated together with 0.45 mM cCMP in 50 Mm Tris-MES buffer, pH 6.5, at 30°C in a final volume of 3 ml. […] A variation of this assay was to preincubate scrambled RNAse with transitional endoplasmic reticulum for 20 min in the presence or absence of 1 µM all-trans retinol (using ethanol as control) and in the presence or absence of 1 µM reduced or oxidized glutathione or a mixture of both. After this 20 min of "reactivation" of RNAse, cCMP was added to a final concentration of 0.45 mM to initiate the reaction. The increase of the absorbance at 296 nm was recorded over 25 min and the concentrations of cCMP were determined (E = 0.19 mM^-1cm^-1). Spectrophotometric measurements were with a Hitachi U3210 spectrophotometer with a thermostatic cell compartment maintained at 30°C with continuous stirring.
Preparation of scrambled RNAse substrate. To prepare the oxidized, denatured RNAse substrate (scrambled RNAse), native RNAse A (Sigma, Type 1-AS from bovine pancreas) (30 µg/ml) was incubated 1 h at 35°C in 50 mM Tris-acetate, pH 8.6, containing 9 M urea and 130 mM DTT.
Protein concentration was estimated from spectrophotometric measurement at 280 nm using native RNAse A as standard. For preparation of scrambled RNAse, the reduced RNAse was diluted to 0.5 mg/ml with 0.1 M acetic acid. Solid urea was then added to a final concentration of 10 M after which 0.1 M sarcosine hydrochloride was added and the pH adjusted to 8.5 with 1 M Tris. The mixture then was incubated in the dark for 2-3 days during which time the protein was randomly oxidized. The scrambled product was recovered by acidification to pH 4 with glacial acetic acid and elution from Sephadex G-25 in 0.1 M acetic acid. Fractions containing protein were pooled, adjusted to pH 8 and stored at 4°C.

[4] = system: circulating NADH oxidase in the serum; experiment: NADH oxidase activity of human serum; type: biochemical; conditions: normal human serum
Description: as §1

native RNAse = molecular target: T1, native RNAse (Bos taurus, UniProt P61823); experiment: Activity of native RNAse; type: biochemical, bovine; conditions: sulfonylurea 1 µM; for activity of native RNAse, pH 6.0: None 0.15; for activity of native RNAse, pH 6.8: None 0.21
T1 construct: native RNAse A (Sigma, Type 1-AS from bovine pancreas); purchased Sigma Type 1-AS; host or cells: bovine pancreas
T1 sequence (P61823 27-150): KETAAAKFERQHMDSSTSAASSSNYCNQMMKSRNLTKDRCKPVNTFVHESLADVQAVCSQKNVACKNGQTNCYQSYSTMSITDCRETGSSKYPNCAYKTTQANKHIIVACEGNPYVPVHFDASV
Description: as §2, with “substrate.” for “substrate. Scrambled RNAse (90.363 mg) was incubated together with 0.45 mM cCMP in 50 Mm Tris-MES buffer, pH 6.5, at 30°C in a final volume of 3 ml.”, “[…] […]” for “A variation of this assay was to preincubate scrambled RNAse with transitional endoplasmic”

[5] = system: NADH oxidase activity of culture medium with HeLa cells; experiment: NADH oxidase activity of culture medium with HeLa cells; type: biochemical, human
Description: As is characteristic of many ectoproteins of the mammalian cell surface, an NADH oxidase activity is present in the serum and in HeLa cell culture filtrate. The NADH oxidase activity of culture medium with HeLa cells is proportional to time of incubation and to the amount of medium added. […] The activity is inhibited by 85°C for 20 min, trypsin, N-ethyl maleimide and PCMB, and guanosine nucleotides. These activities have properties similar to those of the plasma membrane-bound form. The circulating form appears to have a lower molecular weight (ca. 32 kD) than the membrane-bound form. The circulating NADH oxidase in the serum of cancer patients is inhibited by adriamycin whereas the circulating NADH oxidase in the serum of healthy individuals is not. Further details from this observation are found in the examples.

HeLa cells = experiment: Growth of HeLa cells in culture; type: cell-based, human
Description: Growth of cells. HeLa cells (ATCC CCL2), were grown in 150 cm^2 flasks in Minimal Essential Medium (Gibco), pH 7.4. at 37°C with 10% bovine calf serum (heat-inactivated), plus 50 mg/l gentamycin sulfate (Sigma). Cells were trypsinized with Sigma IX trypsin for 1 to 2 min, harvested by scraping and taken up in TD-tris buffer (140 mM NaCl, 5 mM KCl, 0.7 mM Na2HPO4 and 25 mM Tris, pH 7.4) to a final cell concentration of 0.1 g wet weight (gww) per ml.
The number of cells initially plated was subtracted. The results were averages from duplicate experiments.

[6] = substance alone, thiol addition 1 µM, none 0.11
[7] = substance alone, thiol addition 1 µM, none 0.047
[8] = biphasic response, read-out: Km at low NADH concentrations

Compound: CC1=CC(=O)[C@@H](O)[C@]2(C)[C@H]3[C@@]4(O)OC[C@]35[C@H]([C@@H](C)[C@H]4O)[C@@H](O)C(=O)O[C@@H]5C[C@@H]12 [(-)-glaucarubolone]
IC50 ([1]; liver plasma membranes, Figure 3, read-out: final concentration at which the activity was 50% inhibited): ~1 nM

Compound: Nc1nc2c(ncn2[C@@H]2O[C@H](COP(=O)(O)OP(=O)(O)O)[C@@H](O)[C@H]2O)c(=O)[nH]1 [GDP]
response of the NADH oxidase activity (in words) [1]: inhibited

protein disulfide-thiol interchange, I [2, 6]: 0.06 0.D./10 min
protein disulfide-thiol interchange, II [2, 7]: 0.06 0.D./10 min
protein disulfide-thiol interchange, III ([2]; substance alone, thiol addition 1 µM, none 0.021): 0.041 0.D./10 min
Protein disulfide-thiol interchange activity ([3]; thiol treatment, concentration not given): 2.1 nmoles/min/mg protein
Compound: N[C@@H](CCC(=O)N[C@@H](CS)C(=O)NCC(=O)O)C(=O)O [GSH, reduced glutathione]

Compound: Nc1nc2c(ncn2[C@@H]2O[C@H](COP(=O)(O)OP(=O)(O)OP(O)(O)=S)[C@@H](O)[C@H]2O)c(=O)[nH]1 [GTP [γ-S]]
response of the NADH oxidase activity (in words) [1]: inhibited

inhibition of NADH oxidase activity (in words) [4]: inhibited
Compound: Nc1nc2c(ncn2[C@@H]2O[C@H](COP(=O)(O)OP(=O)(O)OP(=O)(O)O)[C@@H](O)[C@H]2O)c(=O)[nH]1 [GTP]

protein disulfide-thiol interchange, I [2, 6]: 0.076 0.D./10 min
protein disulfide-thiol interchange, I ([2]; sulfonylurea with GSH 1 µM): 0.056 0.D./10 min
protein disulfide-thiol interchange, I ([2]; sulfonylurea with GSSG 1 µM): 0.044 0.D./10 min
protein disulfide-thiol interchange, II [2, 7]: 0.049 0.D./10 min
protein disulfide-thiol interchange, II ([2]; sulfonylurea with GSH 1 µM): 0.03 0.D./10 min
protein disulfide-thiol interchange, II ([2]; sulfonylurea with GSSG 1 µM): 0.04 0.D./10 min
protein disulfide-thiol interchange, III ([2]; sulfonylurea with GSH 1 µM): 0.018 0.D./10 min
protein disulfide-thiol interchange, III ([2]; sulfonylurea with GSSG 1 µM): 0.016 0.D./10 min
inhibition of protein disulfide isomerase-like activity (in words) ([2]; plasma membrane vesicles isolated from HeLa cells): inhibited the activity
Protein disulfide-thiol interchange activity ([3]; treatment at 1 µM): 1.0 nmoles/min/mg protein
activity of native RNAse, pH 6.0 (native RNAse): 0.14 µmol/mg/min
activity of native RNAse, pH 6.8 (native RNAse): 0.21 µmol/mg/min
Compound: Cc1ccc(S(=O)(=O)NC(=O)Nc2ccc(Cl)cc2)cc1 [LY181984, N-(4-methylphenylsulfonyl)-N'-(4-chlorophenyl) urea]

activity of native RNAse, pH 6.0 (native RNAse): 0.15 µmol/mg/min
activity of native RNAse, pH 6.8 (native RNAse): 0.21 µmol/mg/min
Compound: Cc1ccc(S(=O)(=O)NC(=O)Nc2ccccc2)cc1 [LY181985, N-(4-methylphenylsulfonyl)-N'-(phenyl)urea]

Compound: CCN1C(=O)C=CC1=O [N-ethyl maleimide]
inhibition of NADH oxidase activity (in words) [4]: inhibited
inhibition of NADH oxidase activity (in words) [5]: inhibited

Compound: NC(=O)C1=CN([C@@H]2O[C@H](COP(=O)(O)OP(=O)(O)OC[C@H]3O[C@@H](n4cnc5c(N)ncnc54)[C@H](O)[C@@H]3O)[C@@H](O)[C@H]2O)C=CC1 [NADH, reduced pyridine nucleotide]
Km [4, 8]: 25 µM
Km [5, 8]: 15 µM

Compound: O=C(O)c1cc[c]([Hg][Cl])cc1 [PCMB, p-chloromercuribenzoate]
inhibition of NADH oxidase activity (in words) [4]: inhibited
inhibition of NADH oxidase activity (in words) [5]: inhibited

Compound: Nc1ccc(Cl)cc1 [free chloroaniline, chloroaniline]
inhibition of growth of HeLa cells (in words) (HeLa cells): inactive

Compound: aluminum fluoride
response of the hormone- and growth-stimulated NADH oxidase (in words) [1]: weakly inhibitory

Compound: mastoparan
response of the hormone- and growth-stimulated NADH oxidase (in words) [1]: activated
